Test results from patent US20060148858A1, “1, 2-Azole derivatives with hypoglycemic and hypolipidemic activity” (priority 2002, published 2006).
Where two headings read alike, the source gives them in different places.

Assays:
PPARγ-RXRα heterodimer = target: T1, PPARγ-RXRα heterodimer (Homo sapiens, UniProt P37231); experiment: PPARγ-RXRα heterodimer ligand activity, luciferase reporter in PPARγ:RXRα:4ERPP/CHO-K1 cells (Test Example 3); assay type: cell-based; conditions: 18-48 hours, concentration for 50% of the maximum fold induction
T1 construct: expressed in transfected cells; host or cells: CHO-K1
T1 sequence (P37231 1-477 isoform P37231-2): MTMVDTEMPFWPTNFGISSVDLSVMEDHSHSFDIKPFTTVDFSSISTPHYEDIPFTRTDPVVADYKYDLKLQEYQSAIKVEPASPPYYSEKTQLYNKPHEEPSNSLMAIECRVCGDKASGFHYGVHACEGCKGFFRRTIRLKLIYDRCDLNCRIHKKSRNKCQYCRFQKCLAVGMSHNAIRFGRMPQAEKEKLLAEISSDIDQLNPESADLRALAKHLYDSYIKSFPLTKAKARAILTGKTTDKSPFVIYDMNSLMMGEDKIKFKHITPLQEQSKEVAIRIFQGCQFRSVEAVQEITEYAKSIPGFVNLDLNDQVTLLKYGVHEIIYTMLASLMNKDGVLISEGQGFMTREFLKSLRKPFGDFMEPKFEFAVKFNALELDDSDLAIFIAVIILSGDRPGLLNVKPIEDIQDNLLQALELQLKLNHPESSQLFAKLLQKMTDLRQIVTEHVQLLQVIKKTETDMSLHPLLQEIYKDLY
T1 sequence (P19793 1-462 partner): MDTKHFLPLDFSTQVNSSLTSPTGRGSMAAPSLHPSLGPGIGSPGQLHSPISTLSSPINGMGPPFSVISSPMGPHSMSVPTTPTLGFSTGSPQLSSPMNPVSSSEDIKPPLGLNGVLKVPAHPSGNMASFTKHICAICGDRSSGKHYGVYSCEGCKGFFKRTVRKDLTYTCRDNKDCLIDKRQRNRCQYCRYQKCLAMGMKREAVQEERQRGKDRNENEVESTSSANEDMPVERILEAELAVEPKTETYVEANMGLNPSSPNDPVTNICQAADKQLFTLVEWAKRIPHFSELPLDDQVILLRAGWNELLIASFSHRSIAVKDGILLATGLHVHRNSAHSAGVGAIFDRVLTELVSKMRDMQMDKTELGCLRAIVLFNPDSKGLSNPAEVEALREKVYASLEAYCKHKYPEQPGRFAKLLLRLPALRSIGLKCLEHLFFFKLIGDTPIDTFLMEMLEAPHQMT
Procedure, shortened: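 Stable CHO-K1 line co-expressing hPPARγ/RXR with 4ERPP-TK luciferase reporter, 2×10^4 cells per well, treated 18-48 h at 37° C. in HAM F12 with 0.1% fatty acid-free BSA. Luciferase fold induction versus untreated taken as 1; EC50 is concentration giving 50% of maximal fold induction.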

KKAY mice = experiment: Hypoglycemic and hypolipidemic actions in mice (Test Example 1); assay type: in vivo; conditions: Mus musculus, po, 96 h, 0.005% in powdery diet, four days, non-treated group taken as 100%
Procedure, shortened: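 KKAY mice (9 to 12 weeks old, 5 per group) were fed diet containing 0.005% test compound ad libitum for four days. Plasma glucose and triglycerides from orbital venous blood were measured enzymatically, reported as % decrease relative to untreated group (100%).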

[1] = rate of decrease in blood glucose level, read-out: Hypoglycemic action (%)
[2] = rate of decrease in blood triglyceride level, read-out: Hypolipidemic action (%)

| EC50 (PPARγ-RXRα heterodimer) [nM] | melting point [°C] | SMILES | inhibition in vivo at 0.005 % in diet (KKAY mice; [1]) [%] | inhibition in vivo at 0.005 % in diet (KKAY mice; [2]) [%] |
| --- | --- | --- | --- | --- |
| 38 | 139 to 140 | CC(C)c1nn(-c2ccc(C(F)(F)F)cn2)cc1CCCOc1cc(CCC(=O)O)n(-c2ccccc2)n1 [Example 24, 3-[3-(3-{3-isopropyl-1-[5-(trifluoromethyl)-2-pyridyl]-1H-pyrazol-4-yl}propoxy)-1-phenyl-1H-pyrazol-5-yl]propionic acid] | – | – |
| 210 | 134 to 135 | CCOc1nn(-c2ccc(C(F)(F)F)cn2)cc1CCCOc1cccc(CC(=O)O)c1 [Example 30, [3-(3-{3-ethoxy-1-[5-(trifluoromethyl)-2-pyridyl]-1H-pyrazol-4-yl}propoxy)phenyl]acetic acid] | 35 | 58 |
| 35 | 83 to 84 | CCOc1nn(-c2ccc(C(F)(F)F)cn2)cc1CCCOc1ccccc1CC(=O)O [Example 31, (2-(3-{3-ethoxy-1-[5-(trifluoromethyl)-2-pyridyl]-1H-pyrazol-4-yl}propoxy)phenyl]acetic acid] | 50 | 69 |
| 19 | 121 to 122 | CCOc1nn(-c2ccc(C(F)(F)F)cn2)cc1CCCOc1cc(CCC(=O)O)n(-c2ccccc2)n1 [Example 42, 3-[3-(3-{3-ethoxy-1-[5-(trifluoromethyl)-2-pyridyl]-1H-pyrazol-4-yl}propoxy)-1-phenyl-1H-pyrazol-5-yl]propionic acid] | 32 | 19 |
| 53 | 149 to 150 | CCCc1nn(-c2ccc(C(F)(F)F)cn2)cc1CCCOc1cc(CCC(=O)O)n(-c2ccccc2)n1 [Example 43, 3-[1-phenyl-3-(3-{3-propyl-1-[5-(trifluoromethyl)-2-pyridyl]-1H-pyrazol-4-yl}propoxy)-1H-pyrazol-5-yl]propionic acid] | – | – |
| 110 | 119 to 120 | CCCc1nn(-c2ccc(C(F)(F)F)cn2)cc1CCCOc1ccc(CCC(=O)O)c(OCC)c1 [Example 98, 3-[2-ethoxy-4-(3-{3-propyl-1-[5-(trifluoromethyl)-2-pyridinyl]-1H-pyrazol-4-yl}propoxy)phenyl]propanoic acid] | – | – |
| 82 | 104 to 105 | CCOc1nn(-c2ccc(C(F)(F)F)cn2)cc1CCCOc1ccc(CCC(=O)O)c(OC(C)C)c1 [Example 116, 3-[4-(3-{3-ethoxy-1-[5-(trifluoromethyl)-2-pyridinyl]-1H-pyrazol-4-yl}propoxy)-2-isopropoxyphenyl]propanoic acid] | – | – |
| 26 | 175 to 176 | O=C(O)CCc1cc(OCCCc2cn(-c3ccc(C(F)(F)F)cn3)nc2-c2ccccc2)nn1-c1ccccc1 [Example 125, 3-[1-phenyl-3-(3-{3-phenyl-1-[5-(trifluoromethyl)-2-pyridyl]-1H-pyrazol-4-yl}propoxy)-1H-pyrazol-5-yl]propionic acid] | – | – |
| 75 | 142 to 143 | COc1cccc(CC(=O)O)c1OCCCc1cn(-c2ccc(C(F)(F)F)cn2)nc1C(C)C [Example 181, [2-(3-{3-isopropyl-1-[5-(trifluoromethyl)-2-pyridyl]-1H-pyrazol-4-yl}propoxy)-3-methoxyphenyl]acetic acid] | 49 | 49 |
| 14 | 182 to 183 | O=C(O)CCc1cc(OCCCc2cn(-c3ccc(C(F)(F)F)cn3)nc2C2CCCCC2)nn1-c1ccccc1 [Example 189, 3-[3-(3-{3-cyclohexyl-1-[5-(trifluoromethyl)-2-pyridyl]-1H-pyrazol-4-yl}propoxy)-1-phenyl-1H-pyrazol-5-yl]propionic acid] | 50 | 38 |
| 63 | 134 to 135 | CCOc1ccc(CC(=O)O)cc1OCCCc1cn(-c2ccc(C(F)(F)F)cn2)nc1C1CCCCC1 [Example 201, [3-(3-{3-cyclohexyl-1-[5-(trifluoromethyl)-2-pyridyl]-1H-pyrazol-4-yl}propoxy)-4-ethoxyphenyl]acetic acid] | – | – |
| 13 | 100 to 101 | CCC(CC)c1nn(-c2ccc(C(F)(F)F)cn2)cc1CCCOc1c(CC(=O)O)cccc1OC [Example 212, [2-(3-{3-(1-ethylpropyl)-1-[5-(trifluoromethyl)-2-pyridyl]-1H-pyrazol-4-yl}propoxy)-3-methoxyphenyl]acetic acid] | 52 | 55 |
| 7.8 | 125 to 126 | CCC(CC)c1nn(-c2ccc(C(F)(F)F)cn2)cc1CCCOc1c(C)cccc1CC(=O)O [Example 213, [2-(3-{3-(1-ethylpropyl)-1-[5-(trifluoromethyl)-2-pyridyl]-1H-pyrazol-4-yl}propoxy)-3-methylphenyl]acetic acid] | 51 | 52 |
| 24 | 85 to 86 | CCC(CC)c1nn(-c2ccc(Cl)cn2)cc1CCCOc1c(CC(=O)O)cccc1OC [Example 223, (2-{3-[1-(5-chloro-2-pyridyl)-3-(1-ethylpropyl)-1H-pyrazol-4-yl]propoxy}-3-methoxyphenyl)acetic acid] | 38 | 55 |
| 17 | 145 to 146 | CCCc1nn(-c2ccc(C(F)(F)F)cn2)cc1CCCOc1c(Br)cccc1CC(=O)O [Example 237, [3-bromo-2-(3-{3-propyl-1-[5-(trifluoromethyl)-2-pyridinyl]-1H-pyrazol-4-yl}propoxy)phenyl]acetic acid] | – | – |
| 40 | 117 to 118 | COc1ccc(CC(=O)O)cc1OCCCc1cn(-c2ccc(C(F)(F)F)cn2)nc1C1CCCCC1 [Example 304, [3-(3-{3-cyclohexyl-1-[5-(trifluoromethyl)-2-pyridinyl]-1H-pyrazol-4-yl}propoxy)-4-methoxyphenyl]acetic acid] | – | – |
| 3.8 | 184 to 185 | Cc1cccc(CC(=O)O)c1OCCCc1cn(-c2ccc(C(F)(F)F)cn2)nc1C1CCCCC1 [Example 316, [2-(3-{3-cyclohexyl-1-[5-(trifluoromethyl)-2-pyridinyl]-1H-pyrazol-4-yl}propoxy)-3-methylphenyl]acetic acid] | – | – |
| 26 | 134 to 135 | CCCc1nn(-c2ccc(C(F)(F)F)cn2)cc1CCCOc1c(C)cccc1CC(=O)O [Example 319, [3-methyl-2-(3-{3-propyl-1-[5-(trifluoromethyl)-2-pyridinyl]-1H-pyrazol-4-yl}propoxy)phenyl]acetic acid] | – | – |
| 41 | 96 to 97 | Cc1cccc(CC(=O)O)c1OCCCc1cn(-c2ccc(C(F)(F)F)nn2)nc1C(C)(C)C [Example 367, [2-(3-{3-tert-butyl-1-[6-(trifluoromethyl)pyridazin-3-yl]-1H-pyrazol-4-yl}propoxy)-3-methylphenyl]acetic acid] | – | – |

| SMILES | EC50 (PPARγ-RXRα heterodimer) [nM] | melting point [°C] | inhibition in vivo at 0.005 % in diet (KKAY mice; [1]) [%] | inhibition in vivo at 0.005 % in diet (KKAY mice; [2]) [%] |
| --- | --- | --- | --- | --- |
| CCCc1nn(-c2ccc(C(F)(F)F)cn2)cc1CCCCOc1cc(CCC(=O)O)n(-c2ccccc2)n1 [Example 58, 3-[1-phenyl-3-(4-{3-propyl-1-[5-(trifluoromethyl)-2-pyridinyl]-1H-pyrazol-4-yl}butoxy)-1H-pyrazol-5-yl]propanoic acid] | 43 | 123 to 124 | – | – |
| CCOc1nn(-c2ccc(C(F)(F)F)cn2)cc1CCCCOc1cc(CCC(=O)O)n(-c2ccccc2)n1 [Example 104, 3-[3-(4-{3-ethoxy-1-[5-(trifluoromethyl)-2-pyridinyl]-1H-pyrazol-4-yl}butoxy)-1-phenyl-1H-pyrazol-5-yl]propanoic acid] | 34 | 138 to 139 | – | – |
| CCOc1nn(-c2ccc(C(F)(F)F)cn2)cc1CCCCOc1ccccc1CC(=O)O [Example 137, [2-(4-{3-ethoxy-1-[5-(trifluoromethyl)-2-pyridyl]-1H-pyrazol-4-yl}butoxy)phenyl]acetic acid] | 35 | 109 to 110 | – | – |
